Assay results published in patent publication US8110585B2, “Bicyclic compound and pharmaceutical use thereof” (Takeda Pharmaceutical Company Limited, priority 2007, dated 2012).

What was measured:
[1] = target: T1, human melatonin 2 receptors (human MT2 receptors) (Homo sapiens, UniProt P49286); assay: Melatonin receptor binding inhibitory test, 2-[125I] Iodomelatonin, MT2; settings: membrane fraction of CHO-hMT2 cells, 25° C. for 2.5 hr, read-out: binding inhibitory activity as IC50 value for MT2
T1 construct: expressed in transfected cells; membrane fraction
T1 sequence (P49286 1-362): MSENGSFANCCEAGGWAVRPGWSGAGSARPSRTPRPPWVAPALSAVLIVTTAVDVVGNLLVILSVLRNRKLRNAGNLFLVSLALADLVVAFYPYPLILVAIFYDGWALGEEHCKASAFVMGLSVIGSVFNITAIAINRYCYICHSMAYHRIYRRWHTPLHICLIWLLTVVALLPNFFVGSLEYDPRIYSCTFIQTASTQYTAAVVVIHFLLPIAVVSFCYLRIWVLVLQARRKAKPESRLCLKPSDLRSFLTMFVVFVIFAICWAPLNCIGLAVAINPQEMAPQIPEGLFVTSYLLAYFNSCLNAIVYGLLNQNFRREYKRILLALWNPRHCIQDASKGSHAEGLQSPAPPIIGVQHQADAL
Protocol: (§1) Melatonin Receptor Binding Inhibitory Test
(2) Preparation of CHO-hMT2 Cells Expressing Human Melatonin 2 Receptors
A cDNA fragment (SEQ ID NO: 2) encoding full-length of human melatonin 2 receptors (human MT2 receptors) was incorporated into expression vector pCMV-Script (Stratagene, #212220) to give the plasmid that was pCMV-human MT2 receptors expression vector for animal cell expression. CHO-K1 cells (ATCC, #CCL-61) were plated at the concentration of 1.5×10^5 cells/cm^2 in a 6 well plate (ASAHI TECHNO GLASS), and cultured under the conditions of 37° C., 5% CO2 for 24 hr. For gene transfection, solution obtained by blending pCMV-human MT2 receptors expression vector (1.9 μg), Lipofectamine Transfection Reagent (Invitrogen, #18324-012) (11.3 μL) and Minimum Essential Medium Eagle (MEM) medium (Sigma, M8042) (93.8 μL), and reacting at room temperature for 20 min was added to the cells per one well. The transfected cells were cultured in MEM medium containing 10% FBS (Life Technology) and 300 μg/mL Geneticin (GIBCO, #10131), and the cell line that stably expressed the plasmid gene was selected. By a receptor binding assay using 2-[^125I] Iodomelatonin, CHO-hMT2 cell line showing specific binding of 2-[^125I] Iodomelatonin was selected from the obtained clones.
(§2) (3) Preparation of Cellular Membrane Fraction of CHO Cell (CHO-hMelR7 and CHO-hMT2) Stably Expressing Human MT1 and MT2 Receptors
(§3) CHO-hMelR7 and CHO-hMT2 cells were plated using Cellfactory (Nunc, #170009) under the conditions of 1×10^8 cells/2000 mL/flask. The cells were grown to confluent, and recovered by the following method. As the medium for CHO-hMelR7 and CHO-hMT2, MEM a containing 10% FBS and penicillin/streptomycin was used. […]
(§4) The medium was discarded, cells were washed twice with 200 mL of EDTA/PBS(−), 200 mL of EDTA/PBS(−) was further added, and the cells were stood still at room temperature for 20 min until they were released. The cells were recovered in four 50 mL tubes (Becton Dickinson, #352070), and centrifuged at 1,500 rpm for 10 min at 4° C. using a low speed cooling centrifuge (Hitachi, CF7D2). The supernatant was discarded, the pellets in the four tubes were suspended in 10 mL of PBS(−), and combined in one tube (Becton Dickinson, #352070). The mixture was further centrifuged at 1,500 rpm for 10 min at 4° C., and the obtained pellets were suspended in 20 mL of ice-cooled homogenizing buffer [10 mM NaHCO3, 5 mM EDTA, Protease inhibitor Complete (Roche), pH 7.4]. The cell suspension was homogenized 3 times using a polytron homogenizer at 20,000 rpm for 30 sec. The obtained homogenate was centrifuged (2,000 rpm, 10 min, 4° C.) using a low speed cooling centrifuge. The supernatant was recovered in an ultracentrifugation tube and ultracentrifuged (40,000 rpm, 60 min, 4° C.) using an ultracentrifuge (Beckman, L-90K). To the obtained pellets was added a suspending buffer [50 mM Tris-HCl, 1 mM EDTA, Protease inhibitor Complete (Roche), pH 7.4], and the pellets were suspended by pipetting. The protein concentration of this suspension was measured, diluted to 2 mg/mL to give cellular membrane fractions of CHO-hMelR7 and CHO-hMT2 cells. The membrane fractions were dispensed to 1.5 mL tubes (Eppendorf, #0030120.086) by 100 μL, preserved in a freezer (−80° C.) and used for a binding assay. Protein was quantified using BCA protein assay kit (Pierce) with BSA as the standard.
(§5) (4) Preparation of Membrane Fraction Suspension
(§6) Immediately before use, the membrane fractions of CHO-hMelR7 and CHO-hMT2 cells of the above-mentioned (3) were diluted 20-fold with assay buffer (50 mM Tris-HCl, pH 7.7).
(§7) (5) Preparation of 2-[^125I] Iodomelatonin Solution
(§8) 2-[^125I] Iodomelatonin (#NEX236, PerkinElmer) was diluted with the assay buffer to 400 pM for MT1 and 1 nM for MT2.
The assay buffer (80 μL) of the above-mentioned (4) was added to each well of a 96-well plate (type 3363, Corning). […]

[2] = target: T2, human melatonin 1 receptors (human MT1 receptors) (Homo sapiens, UniProt P48039); assay: Melatonin receptor binding inhibitory test, 2-[125I] Iodomelatonin, MT1; settings: membrane fraction of CHO-hMelR7 cells, 25° C. for 2.5 hr, read-out: binding inhibitory activity as IC50 value for MT1
T2 construct: expressed in transfected cells; membrane fraction
Protocol: as §1
(1) Preparation of CHO-hMelR7 Cells expressing Human Melatonin 1 Receptors
A cDNA fragment (SEQ ID NO: 1) encoding full-length of human melatonin 1 receptors (human MT1 receptors) was incorporated into expression vector pAKKO-111H (former name pAKKO1.11H; Biochim Biophys Acta. Vol. 1219(2), pp. 251-259, 1994) to give plasmid pAKKO-hMelR7 for animal cell expression. CHO/dhfr-cells (ATCC, #CRL-9096) were plated at a concentration of 0.3×10^6 cells/dish in a 6 cm culture dish (Becton Dickinson), and cultured under the conditions of 37° C., 5% CO2 for 48 hr. The cells were transfected with pAKKO-hMelR7 plasmid DNA (5 μg) using Cellphect Transfection Kit (Amersham, #27-9268-01). The transfected cells were cultured in Dulbecco's modified Eagle medium (DMEM) (Sigma, #D6046) containing 10% dialyzed FBS (Biowest, #S180D), 1× Non-Essential Amino Acid (Invitrogen, #11140-050) and 50 μg/mL Gentamycin (Invitrogen, #15750-060), and the cell line that stably expressed the plasmid gene was selected. By a receptor binding assay using 2-[^125I] Iodomelatonin, CHO-hMelR7 cell line showing specific binding of 2-[^125I] Iodomelatonin was selected from the obtained clones.
as §2, §3, §4, §5, §6, §7, §8
The assay buffer (80 μL) of the above-mentioned (4) was added to each well of a 96-well plate (type 3363, Corning). Then, a test compound (compound solution diluted with DMSO to 200-fold of the final measurement concentration) was added by 2 μL. […]

T2 sequence (P48039 whole entry): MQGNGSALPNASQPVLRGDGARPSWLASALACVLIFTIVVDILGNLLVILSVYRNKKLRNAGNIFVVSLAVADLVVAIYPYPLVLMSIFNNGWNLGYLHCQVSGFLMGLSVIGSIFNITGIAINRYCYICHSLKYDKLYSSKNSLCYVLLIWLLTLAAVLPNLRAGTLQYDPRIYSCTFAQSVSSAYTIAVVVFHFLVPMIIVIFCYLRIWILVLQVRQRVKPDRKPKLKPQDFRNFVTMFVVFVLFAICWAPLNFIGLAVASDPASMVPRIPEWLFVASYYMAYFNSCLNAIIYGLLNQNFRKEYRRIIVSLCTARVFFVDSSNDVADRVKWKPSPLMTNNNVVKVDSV

IC50 [1] [nM]	IC50 [2] [nM]	melting point [°C]	Compound
≤ 100	≤ 100	145 to 147	CC(=O)NC[C@H]1C[C@@H]1c1cccc2nn(C)cc12 [Example 10, N-{[(1S,2S)-2-(2-methyl-2H-indazol-4-yl)cyclopropyl]methyl}acetamide]
≤ 100	≤ 100	95 to 98	CCC(=O)NC[C@@H]1C[C@H]1c1cccn2nc(C)cc12 (relative stereo) [Example 6, trans-N-{[2-(2-methylpyrazolo[1,5-a]pyridin-4-yl)cyclopropyl]methyl}propanamide]
≤ 100	≤ 100	124 to 126	CC(=O)NCC1CC1c1cccc2nc(C)nn12 (stereo not drawn) [Example 56, N-{[2-(2-methyl[1,2,4]triazolo[1,5-a]pyridin-5-yl)cyclopropyl]methyl}acetamide]
≤ 100	≤ 100	109 to 111	CC(=O)NC[C@@H]1C[C@H]1c1cccc2nn(C)c(F)c12 (relative stereo) [Example 18, trans-N-{[2-(3-fluoro-2-methyl-2H-indazol-4-yl)cyclopropyl]methyl}acetamide]
≤ 100	≤ 100	145 to 147	CC(=O)NC[C@@H]1C[C@H]1c1cccc2nn(C)cc12 [Example 11, N-{[(1R,2R)-2-(2-methyl-2H-indazol-4-yl)cyclopropyl]methyl}acetamide]
–	≤ 100	116 to 118	CC(=O)NCC1CC1c1cccn2nc(C)nc12 (stereo not drawn) [Example 3, N-{[2-(2-methyl[1,2,4]triazolo[1,5-a]pyridin-8-yl)cyclopropyl]methyl}acetamide]

Further lines, the compound ahead of its results:

Compound	IC50 [1] [nM]	IC50 [2] [nM]	melting point [°C]
CC(=O)NCC1CC1c1cccc2nnsc12 (stereo not drawn) [Example 60, N-{[2-(1,2,3-benzothiadiazol-7-yl)cyclopropyl]methyl}acetamide]	≤ 100	≤ 100	81 to 82
CCC(=O)NCC1CC1c1c(Br)ccc2nn(C)cc12 (stereo not drawn) [Example 30, N-{[2-(5-bromo-2-methyl-2H-indazol-4-yl)cyclopropyl]methyl}propanamide]	≤ 100	≤ 100	119 to 121
CC(=O)NC[C@@H]1C[C@H]1c1c(F)ccc2nn(C)cc12 (relative stereo) [Example 23, trans-N-{[2-(5-fluoro-2-methyl-2H-indazol-4-yl)cyclopropyl]methyl}acetamide]	≤ 100	≤ 100	157 to 159
CCC(=O)NCC1CC1c1cccc2nc(C)nn12 (stereo not drawn) [Example 57, N-{[2-(2-methyl[1,2,4]triazolo[1,5-a]pyridin-5-yl)cyclopropyl]methyl}propanamide]	≤ 100	≤ 100	118 to 119
Cc1cc2c([C@@H]3C[C@H]3CNC(=O)C(F)(F)F)cccn2n1 (relative stereo) [Example 46, trans-2,2,2-trifluoro-N-{[2-(2-methylpyrazolo[1,5-a]pyridin-4-yl)cyclopropyl]methyl}acetamide]	≤ 100	≤ 100	136 to 138
Cc1cc2c([C@@H]3C[C@H]3CNC(=O)C3CC3)cccn2n1 (relative stereo) [Example 47, trans-N-{[2-(2-methylpyrazolo[1,5-a]pyridin-4-yl)cyclopropyl]methyl}cyclopropanecarboxamide]	≤ 100	≤ 100	133 to 135
CC(=O)NC[C@@H]1C[C@H]1c1cccn2nc(C)cc12 (relative stereo) [Example 5, trans-N-{[2-(2-methylpyrazolo[1,5-a]pyridin-4-yl)cyclopropyl]methyl}acetamide]	≤ 100	≤ 100	114 to 115
COc1ccc2nn(C)cc2c1C1CC1CNC(C)=O (stereo not drawn) [Example 37, N-{[2-(5-methoxy-2-methyl-2H-indazol-4-yl)cyclopropyl]methyl}acetamide]	≤ 100	≤ 100	104 to 105
CC(=O)NCC1CC1c1c(Cl)ccc2nn(C)cc12 (stereo not drawn) [Example 27, N-{[2-(5-chloro-2-methyl-2H-indazol-4-yl)cyclopropyl]methyl}acetamide]	≤ 100	≤ 100	149 to 150
CCC(=O)NC[C@@H]1C[C@H]1c1cccc2nn(C)cc12 [Example 13, N-{[(1R,2R)-2-(2-methyl-2H-indazol-4-yl)cyclopropyl]methyl}propanamide]	≤ 100	≤ 100	78 to 80
CCC(=O)NCC1CC1c1cccc2nscc12 (stereo not drawn) [Example 63, N-{[2-(2,1-benzisothiazol-4-yl)cyclopropyl]methyl}propanamide]	≤ 100	≤ 100	84 to 86
CCC(=O)NCC1CC1c1cccn2nc(C)nc12 (stereo not drawn) [Example 4, N-{[2-(2-methyl[1,2,4]triazolo[1,5-a]pyridin-8-yl)cyclopropyl]methyl}propanamide]	≤ 100	≤ 100	–
CCc1ccc2nn(C)cc2c1C1CC1CNC(C)=O (stereo not drawn) [Example 32, N-{[2-(5-ethyl-2-methyl-2H-indazol-4-yl)cyclopropyl]methyl}acetamide]	≤ 100	≤ 100	–
